Data as given in patent EP0517262A1, “Trifluorothymidine derivatives, process for producing the same and anti-cancer agent containing the same” (priority 1991, dated 1992).

What was measured:
Meth A fibrosarcoma = experiment: Pharmacological Test 1 (anti-cancer activity): tumor weight ratio T/C of subcutaneously transplanted tumor; type: in vivo, mice; settings: Mus musculus, 336 h
Experimental: (§1) Female CDF₁ mice of 6 weeks old were used. As the tumor, Meth A fibrosarcoma was used.
(§2) To the right abdomen of each mouse, 2 x 10⁶ tumor cells were subcutaneously transplanted. On the next day (day 1), the mice were randomly grouped and the suspension was compulsively administered to the mice by using an oral sound for successive 7 days (day 1 - day 7).
On day 14, the tumors were removed and weighed. The tumor growth ratio (%) was calculated according to the following equation: Tumor Growth Ratio (%) = T/C x 100 [formula] wherein T means the average weight of tumor of the treated group and C means the average weight of tumor of the control group.

[1] = Pharmacological Test 1: body weight change of the tumor-bearing mice; settings: day 1 - day 7, female CDF1 mice with Meth A fibrosarcoma
Text: as §1, §2

adenocarcinoma-755 = settings: experimental model tumor; Cancer Research, Vol. 24, p.1979, 1964; cited from earlier work
[2] = cited from earlier work
L1210 leukemia = settings: experimental model tumor; Cancer Research, Vol. 24, p.1979, 1964; cited from earlier work
[3] = po, read-out: Tumor Weight Ratio (T/C : %)

Structure (SMILES): C#CCO[C@H]1C[C@H](n2cc(C(F)(F)F)c(=O)[nH]c2=O)O[C@@H]1COC(=O)CN1CCN(CCCCCCCCC)CC1.Cl.Cl [Example 11, 5'-O-{2-(4-nonylpiperazin-1-yl)acetyl}-3'-O-propargyl-α,α,α-trifluorothymidine dihydrochloride]
- response vs control in vivo at 37 mg/kg (Meth A fibrosarcoma; 37.0 mg/kg oral, day 1 - day 7, tumors weighed on day 14): 58%
- response vs control in vivo at 75 mg/kg (Meth A fibrosarcoma; 75.0 mg/kg oral, day 1 - day 7, tumors weighed on day 14): 31%
- Body Weight Change ([1]; 37.0 mg/kg oral): 0.6 g
- Body Weight Change ([1]; 75.0 mg/kg oral): -2.7 g

Structure (SMILES): C#CCO[C@H]1C[C@H](n2cc(C(F)(F)F)c(=O)[nH]c2=O)O[C@@H]1COC(=O)CCCCCCCCCCCCCCCCC [Example 29]
- response vs control in vivo at 18 mg/kg (Meth A fibrosarcoma; 18.0 mg/kg oral, day 1 - day 7, tumors weighed on day 14): 52%
- response vs control in vivo at 71.9 mg/kg (Meth A fibrosarcoma; 71.9 mg/kg oral, day 1 - day 7, tumors weighed on day 14): 21%
- Body Weight Change ([1]; 18.0 mg/kg oral): -1.2 g
- Body Weight Change ([1]; 71.9 mg/kg oral): -6.9 g

Structure (SMILES): C#CCO[C@H]1C[C@H](n2cc(C(F)(F)F)c(=O)n(C(=O)c3ccccc3)c2=O)O[C@@H]1CO [Example 6, 3-benzoyl-3'-O-propargyl-α,α,α-trifluorothymidine]
- response vs control in vivo at 22.7 mg/kg (Meth A fibrosarcoma; 22.7 mg/kg oral, day 1 - day 7, tumors weighed on day 14): 28.3%
- response vs control in vivo at 68.1 mg/kg (Meth A fibrosarcoma; 68.1 mg/kg oral, day 1 - day 7, tumors weighed on day 14): 2.6%
- Body Weight Change ([1]; 22.7 mg/kg oral): -3.8 g
- Body Weight Change ([1]; 68.1 mg/kg oral): -4.7 g

Structure (SMILES): C#CCO[C@H]1C[C@H](n2cc(C(F)(F)F)c(=O)n(C(=O)c3ccco3)c2=O)O[C@@H]1CO [Example 47]
- response vs control in vivo at 25.6 mg/kg (Meth A fibrosarcoma; 25.6 mg/kg oral, day 1 - day 7, tumors weighed on day 14): 90.3%
- response vs control in vivo at 76.9 mg/kg (Meth A fibrosarcoma; 76.9 mg/kg oral, day 1 - day 7, tumors weighed on day 14): 21.7%
- Body Weight Change ([1]; 25.6 mg/kg oral): 0.7 g
- Body Weight Change ([1]; 76.9 mg/kg oral): -4.4 g

Structure (SMILES): C#CCO[C@H]1C[C@H](n2cc(C(F)(F)F)c(=O)[nH]c2=O)O[C@@H]1CO[Si](C)(C)C(C)C [Example 7, 5'-O-isopropyldimethylsilyl-3'-O-propargyl-α,α,α-trifluorothymidine]
- response vs control in vivo at 26 mg/kg (Meth A fibrosarcoma; [3]): 38%
- response vs control in vivo at 52 mg/kg (Meth A fibrosarcoma; [3]): 25%
- Body Weight Change ([1]; 26.0 mg/kg oral): -0.2 g
- Body Weight Change ([1]; 52.0 mg/kg oral): -4.0 g

Structure (SMILES): C#CCO[C@H]1C[C@H](n2cc(C(F)(F)F)c(=O)[nH]c2=O)O[C@@H]1COC(=O)[C@@H]1CCCN1CCCCCCCCCCCC.Cl [Example 14, 5'-O-(N-dodecyl-L-prolyl)-3'-O-propargyl-α,α,α-trifluorothymidine hydrochloride]
- response vs control in vivo at 38 mg/kg (Meth A fibrosarcoma; 38.0 mg/kg oral, day 1 - day 7, tumors weighed on day 14): 32%
- response vs control in vivo at 76 mg/kg (Meth A fibrosarcoma; 76.0 mg/kg oral, day 1 - day 7, tumors weighed on day 14): 15%
- Body Weight Change ([1]; 38.0 mg/kg oral): -0.2 g
- Body Weight Change ([1]; 76.0 mg/kg oral): -4.7 g

Structure (SMILES): O=c1[nH]c(=O)n([C@H]2C[C@H](O)[C@@H](CO)O2)cc1C(F)(F)F [Example F3Thd, Trifluorothymidine]
- anti-tumor activity (adenocarcinoma-755): excellent anti-tumor activity
- metabolism in the body ([2]; in vivo): rapidly metabolized in the body
- absorption when administered orally ([2]; oral administration): not well absorbed when administered orally
- anti-tumor activity (L1210 leukemia): excellent anti-tumor activity

Structure (SMILES): C#CCO[C@H]1C[C@H](n2cc(C(F)(F)F)c(=O)[nH]c2=O)O[C@@H]1CO[Si](C)(C)C(C)(C)C [Example 1, 5'-O-(t-butyldimethylsilyl)-3'-O-propargyl-α,α,α-trifluorothymidine]
- response vs control in vivo at 13.4 mg/kg (Meth A fibrosarcoma; [3]): 67%
- response vs control in vivo at 53.7 mg/kg (Meth A fibrosarcoma; [3]): 33%
- Body Weight Change ([1]; 13.4 mg/kg oral): -0.3 g
- Body Weight Change ([1]; 53.7 mg/kg oral): -4.9 g

Structure (SMILES): C#CCO[C@H]1C[C@H](n2cc(C(F)(F)F)c(=O)n(C(=O)c3ccc(OC)cc3)c2=O)O[C@@H]1CO [Example 45]
- response vs control in vivo at 28 mg/kg (Meth A fibrosarcoma; 28.0 mg/kg oral, day 1 - day 7, tumors weighed on day 14): 64.6%
- response vs control in vivo at 84.1 mg/kg (Meth A fibrosarcoma; 84.1 mg/kg oral, day 1 - day 7, tumors weighed on day 14): 6.9%
- Body Weight Change ([1]; 28.0 mg/kg oral): 1.3 g
- Body Weight Change ([1]; 84.1 mg/kg oral): -4.5 g

Structure (SMILES): C#CCO[C@H]1C[C@H](n2cc(C(F)(F)F)c(=O)[nH]c2=O)O[C@@H]1CO[Si](CC)(CC)CC [Example 13, 5'-O-(triethylsilyl)-3'-O-propargyl-α,α,α-trifluorothymidine]
- response vs control in vivo at 27 mg/kg (Meth A fibrosarcoma; [3]): 57%
- response vs control in vivo at 54 mg/kg (Meth A fibrosarcoma; [3]): 37%
- Body Weight Change ([1]; 27.0 mg/kg oral): 0.8 g
- Body Weight Change ([1]; 54.0 mg/kg oral): -2.9 g

Structure (SMILES): C#CCO[C@H]1C[C@H](n2cc(C(F)(F)F)c(=O)[nH]c2=O)O[C@@H]1CO [Example 2, 3'-O-propargyl-α,α,α-trifluorothymidine]
- response vs control in vivo at 17.3 mg/kg (Meth A fibrosarcoma; 17.3 mg/kg oral, day 1 - day 7, tumors weighed on day 14): 16.6%
- response vs control in vivo at 51.9 mg/kg (Meth A fibrosarcoma; 51.9 mg/kg oral, day 1 - day 7, tumors weighed on day 14): 7.7%
- Body Weight Change ([1]; 17.3 mg/kg oral): -0.5 g
- Body Weight Change ([1]; 51.9 mg/kg oral): -4.9 g
